From patent US5445832A, “Process for the preparation of microspheres made of a biodegradable polymeric material” (priority 1991, dated 1995)

Assay: Solubility of the peptide pamoate in water
Type: physicochemical
Conditions: in H2O at 40° C.
Description: (pyro)Glu-His-Trp-Ser-Tyr-D-Trp-Leu-Arg-Pro-Gly-NH2 were converted into the corresponding pamoate, using conventional techniques. After comminution, this salt appears as formed of microparticles of an amorphous structure with an average particle size of approximately 10 microns. Solubility: lesser than 0.025 mg/ml in H2 O at 40° C.

With `CC(C)C[C@H](NC(=O)[C@@H](Cc1c[nH]c2ccccc12)NC(=O)[C@H](Cc1ccc(O)cc1)NC(=O)[C@H](CO)NC(=O)[C@H](Cc1c[nH]c2ccccc12)NC(=O)[C@H](Cc1c[nH]cn1)NC(=O)[C@@H]1CCC(=O)N1)C(=O)N[C@@H](CCCNC(=N)N)C(=O)N1CCC[C@H]1C(=O)NCC(N)=O` [pamoate of D-Trp6-LHRH, (pyro)Glu-His-Trp-Ser-Tyr-D-Trp-Leu-Arg-Pro-Gly-NH2] the solubility was < 25 µg/mL.
